Experimental findings from patent US8759579B2, “Cyclobutyl sulfones as notch sparing gamma secretase inhibitors” (Merck Sharp & Dohme Corp., priority 2008, dated 2014) are described below.

Like-named read-outs stand apart in the source and are kept apart here.

One may read the IC50 as the point on the concentration scale where inhibition reaches its midpoint. The term EC50 denotes the concentration at which the effect is half-maximal. Lower therefore signals greater potency.

What all share (type): cell-based
The subject of data set [1] is gamma secretase-dependent cleavage of the Notch protein (NotchΔE) in HeLa cells. Put plainly: Notch processing split-luciferase assay (Notch intracellular domain release). The source says:
Notch Processing: (Assay Quantitates Notch Intracellular Domain Release in Cell Lines):
A “split-luciferase” assay is used to measure inhibition of gamma secretase-dependent cleavage of the Notch protein. In this assay, HeLa cells were made to express a Notch protein lacking its extracellular domain (NotchΔE) fused to an N-terminal fragment of luciferase. The same cells also expressed a C-terminal fragment of luciferase fused to the immunoglobulin J kappa recombination signal sequence binding protein (RBP). Upon NotchΔE cleavage by gamma secretase, a Notch intracellular domain (NICD)-N terminal luciferase protein is generated which translocates to the nucleus and binds the RBP-C terminal luciferase fusion, bringing two independently nonfunctional halves of luciferase together to form a functional luciferase enzyme. The activity of luciferase in these cells is directly proportional to the amount of gamma secretase-cleaved Notch. Luciferase activity is determined by the standard techniques of luciferin addition to lysed cells and measurement of total luminescence.

The subject of data set [2] is Aβ40 peptides generated from SH-SY5Y cells expressing amyloid β protein (SP4CT cells). Put plainly: APP processing AlphaLisa assay, secreted Aβ40. As to conditions: average of at least >4 replicates, read-out: AB40 IC50 AVG. Here is the method:
(§1) APP Processing (Assay Quantitates Secreted Aβ Analytes from Cell Lines):
(§2) The effect of compounds on the abundance of Aβ40 and Aβ42 peptides generated from SH-SY5Y cells expressing amyloid β protein (SP4CT cells) was determined by an AlphaLisa™ assay. Analogous to an ELISA assay, generation of signal in this AlphaLisa™ assay requires “donor” and “acceptor” beads to be brought in close proximity by specific antibody recognition of either Aβ40 or Aβ42 peptides. The assay was accomplished by removing media from compound-treated SP4CT cells to two different microplates, followed by the addition of donor beads conjugated with streptavidin binding a biotinylated anti-amyloid β monoclonal antibody (clone 4G8). Acceptor beads directly conjugated with anti-Aβ40 monoclonal antibody (G210) were added to one microplate and anti-Aβ42 monoclonal antibody (12F4) acceptor beads were added to the other. Abundance of Aβ40 and Aβ42 was directly proportional to the luminescent signal generated following excitation of donor beads by laser light.
Background: Alpha assays give light when donor and acceptor beads are brought close together.

For data set [3], the target named is T1, pregnane X receptor (PXR) (Homo sapiens, UniProt O75469).
T1 construct: expressed in transfected cells; host or cells: HEP G2
T1 sequence (O75469 1-434): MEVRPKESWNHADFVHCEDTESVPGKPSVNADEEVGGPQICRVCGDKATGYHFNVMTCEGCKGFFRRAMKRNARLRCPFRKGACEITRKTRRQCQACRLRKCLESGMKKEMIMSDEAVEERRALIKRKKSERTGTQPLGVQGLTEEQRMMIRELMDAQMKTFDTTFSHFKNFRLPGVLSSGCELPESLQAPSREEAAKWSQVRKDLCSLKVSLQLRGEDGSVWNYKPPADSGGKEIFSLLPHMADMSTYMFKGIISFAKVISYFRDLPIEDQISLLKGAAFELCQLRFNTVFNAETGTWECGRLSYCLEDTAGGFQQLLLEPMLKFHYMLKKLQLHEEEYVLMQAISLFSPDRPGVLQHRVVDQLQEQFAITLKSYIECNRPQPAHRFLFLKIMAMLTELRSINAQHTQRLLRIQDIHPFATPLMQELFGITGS
T1 sequence (P19793 1-462 partner): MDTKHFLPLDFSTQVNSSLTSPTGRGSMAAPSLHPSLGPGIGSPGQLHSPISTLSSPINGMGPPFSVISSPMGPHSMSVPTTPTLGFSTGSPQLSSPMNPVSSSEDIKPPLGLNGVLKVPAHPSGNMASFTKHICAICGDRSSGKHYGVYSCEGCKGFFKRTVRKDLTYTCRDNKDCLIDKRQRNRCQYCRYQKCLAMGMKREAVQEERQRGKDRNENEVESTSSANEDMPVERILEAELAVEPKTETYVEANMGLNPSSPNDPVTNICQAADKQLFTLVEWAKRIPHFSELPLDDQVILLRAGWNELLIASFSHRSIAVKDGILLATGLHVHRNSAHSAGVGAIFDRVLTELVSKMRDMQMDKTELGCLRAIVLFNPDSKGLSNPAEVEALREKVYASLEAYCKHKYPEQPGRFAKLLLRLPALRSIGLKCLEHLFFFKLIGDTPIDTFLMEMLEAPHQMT
In words: PXR assay (CYP3A4-SEAP transactivation assay, PCSTA). As to conditions: for EC50: HEP G2 cells. An excerpt: The CYP3A4-SEAP transactivation assay (PCSTA) effectively and rapidly evaluates compounds for their potential to induce cytochrome P450 CYP3A (human CYP3A4 or rat CYP3A1). The reporter construct contains regulatory regions from the CYP3A4 gene positioned just upstream of a secreted alkaline phosphatase (SEAP) gene. The human PXR nuclear receptor has been modified at the 5′-end so that methionine is the initiating amino acid replacing leucine found in the wild-type sequence. HEP G2 cells are transfected with the PXR plasmid (human or rat) and the reporter plasmid. Read-out for the induction of CYP3A4 consists of a SEAP calorimetric assay with para-nitro-phenyl phosphate (pNPP) as the substrate. Five point dose-response curves in duplicate are then generated with each point corresponding to the rate of conversion of pNPP to pNP by SEAP. For the human PCSTA, rifampicin is used as the positive control and 100% induction is based upon the maximum induction produced by rifampicin at 10 μM.

For data set [4], the system named is Aβ42 peptides generated from SH-SY5Y cells expressing amyloid β protein (SP4CT cells). Put plainly: APP processing AlphaLisa assay, secreted Aβ42. To be noted: average of at least >4 replicates, read-out: AB42 IC50 AVG. The protocol: as §1, §2
Setting [5] is: Homo sapiens, HeLa, average of at least >4 replicates, read-out: Notch IC50 AVG.

Regarding `O=S(=O)(N(CCOC1CCCCO1)[C@H]1C[C@@](c2cc(F)ccc2F)(S(=O)(=O)c2ccc(Cl)cc2)C1)C(F)(F)F` (stereo partly drawn) [Example 11, N-[cis-3-[(4-chlorophenyl)sulfonyl]-3-(2,5-difluorophenyl)cyclobutyl]-1,1,1-trifluoro-N-[2-(tetrahydro-2-pyran-2-yloxy)ethyl]methanesulfonamide], the IC50 in data set [1] (setting [5]) is 2.54 µM; in data set [2] (Homo sapiens, SH-SY5Y), 43.4 nM; in data set [4] (Homo sapiens, SH-SY5Y) it was 36.9 nM. Moreover, the “PXR % Activation @ 10 uM” value in data set [3] stood at 86.5%. This molecule also came in with an EC50 in data set [3] of 826 nM.
`O=S(=O)(NC1CC(c2cc(F)ccc2F)(S(=O)(=O)c2ccc(F)cc2)C1)C(F)(F)F` (stereo not drawn) [Example 7, N-{cis-3-(2,5-difluorophenyl)-3-[(4-fluorophenyl)sulfonyl]cyclobutyl}-1,1,1-trifluoromethanesulfonamide]: the IC50 in data set [1] (setting [5]) was found to be 3.08 µM; in data set [2] (Homo sapiens, SH-SY5Y), 68.4 nM; in data set [4] (Homo sapiens, SH-SY5Y) it was 57.6 nM. The “PXR % Activation @ 10 uM” value in data set [3] came out at 113.2%. The same molecule returned an EC50 in data set [3] of 766 nM.
The like results for `O=C(O)CN([C@H]1C[C@@](c2cc(F)ccc2F)(S(=O)(=O)c2ccc(Cl)cc2)C1)S(=O)(=O)C(F)(F)F` [Example 16, N-[cis-3-[(4-chlorophenyl)sulfonyl]-3-(2,5-difluorophenyl)cyclobutyl]-N-[(trifluoromethyl)sulfonyl]glycine] were, in that order, 32 µM, 96.7 nM, 67.9 nM, 100% and 1010 nM.
Consider `COC(=O)CCCN([C@H]1C[C@@](c2cc(F)ccc2F)(S(=O)(=O)c2ccc(Cl)cc2)C1)S(=O)(=O)C(F)(F)F` [Example 15, methyl 4-{[cis-3-[(4-chlorophcnyl)sulfonyl]-3-(2,5-difluorophenyl)cyclobutyl][(trifluoromethyl)sulfonyl]amino}butanoate], for which the IC50 in data set [1] (setting [5]) was found to be 2.83 µM; in data set [2] (Homo sapiens, SH-SY5Y), 51.8 nM; in data set [4] (Homo sapiens, SH-SY5Y), 51.8 nM. Also, the response in data set [3] was half-maximal at 1210 nM (EC50).
For `O=S(=O)(N[C@H]1C[C@@](c2cc(F)ccc2F)(S(=O)(=O)c2ccc(OC(F)(F)F)cc2)C1)C(F)(F)F` [Example 22, N-[cis-3-[(4-trifluoromethoxyphenyl)sulfonyl]-3-(2,5-difluorophenyl)cyclobutyl]-1,1,1-trifluoromethanesulfonamide], the IC50 in data set [1] (setting [5]) worked out at 5.2 µM; in data set [2] (Homo sapiens, SH-SY5Y) it was 250 nM; in data set [4] (Homo sapiens, SH-SY5Y) it was 237 nM. The “PXR % Activation @ 10 uM” value in data set [3] was determined as 50.6%. In data set [3], this molecule came in with an EC50 of 9650 nM.
Turning to `O=S(=O)(NC1CC(c2cc(F)ccc2F)(S(=O)(=O)c2ccc(F)c(F)c2)C1)C(F)(F)F` (stereo not drawn) [Example 8, N-{cis-3-(2,5-difluorophenyl)-3-[(3,4-difluorophenyl)sulfonyl]cyclobutyl}-1,1,1-trifluoromethanesulfonamide], the IC50 worked out at 3.14 µM in data set [1] (setting [5]); 79.2 nM in data set [2] (Homo sapiens, SH-SY5Y); 62.8 nM in data set [4] (Homo sapiens, SH-SY5Y). For the same molecule, in data set [3], the “PXR % Activation @ 10 uM” value is 82.3%. This molecule also came in with a 50% effective concentration (EC50) in data set [3] of 1260 nM.
For `CN(C1CC(c2cc(F)ccc2F)(S(=O)(=O)c2ccc(Cl)cc2)C1)S(=O)(=O)C(F)(F)F` (centres unmarked) [Example 13, N-[3-[(4-chlorophenyl)sulfonyl]-3-(2,5-difluorophenyl)cyclobutyl]-1,1,1-trifluoro-N-methylmethanesulfonamide], the IC50 is 4.81 µM in data set [1] (average of at least >4 replicates, read-out: Notch IC50 AVG); 18.4 nM in data set [2]; 18.9 nM in data set [4]. In addition, in data set [3], the EC50 worked out at 1260 nM.
With `O=S(=O)([N-][C@H]1C[C@@](c2cc(F)ccc2F)(S(=O)(=O)c2ccc(Cl)cc2)C1)C(F)(F)F.[K+]` [Example 21, Potassium [cis-3-[(4-chlorophenyl)sulfonyl]-3-(2,5-difluorophenyl)cyclobutyl][(trifluoromethyl)sulfonyl]azanide], the IC50 in data set [1] (read-out: Notch IC50 AVG, average of at least >4 replicates) was 2.13 µM; in data set [2] it was 64.9 nM; in data set [4] it was 70.9 nM. Besides, the “PXR % Activation @ 10 uM” value in data set [3] was 64.4%. Moreover, the EC50 in data set [3] worked out at 3380 nM.
